Laboratory results as given in US5516782A, “New meso-azacyclic aromatic acid amides and esters as novel serotonergic agents” (G. D. Searle & Co., priority 1995, dated 1996).

Legend:
[1] = biological target: 5-HT4 receptor (Rattus norvegicus, UniProt Q62758); test: cell-based; conditions: rat esophagus tunica muscularis mucosae contracted with carbachol (3 μM); tissues from 5 rats; 37° C.; read-out: EC50 values for agonists at this 5-HT4 receptor
Procedure: Agonist activity was determined utilizing relaxation of carbachol-contracted rat tunica muscularis mucosae. One 2 cm segment of intrathoracic esophagus proximal to the diaphragm was removed from male rats, weighing approximately 300 gm, and the outer muscle layers removed. The inner tunica muscularis mucosa was mounted under 0.2-0.3 g of tension in a tissue bath containing oxygenated Tyrode's solution at 37° C. […] Following a 30 min equilibrium period, tissues were isometrically contracted with carbachol (3 μM) to obtain a tonic contraction. A stable plateau was obtained within 20 min when test compound was added cumulatively to relax the muscle strip. EC50 values were obtained for each agonist in tissues from 5 rats.

[2] = biological target: T1, 5-HT3 receptor (Rattus norvegicus, UniProt P35563); test: Serotonin (5-HT3) radioligand receptor binding assay ([3H]-GR65630, rat brain cortex membranes)
T1 construct: Brain cortices are obtained from male rats and a membrane fraction prepared by standard techniques; from tissue; host or cells: rat brain cortex membranes
T1 sequence (P35563 24-483): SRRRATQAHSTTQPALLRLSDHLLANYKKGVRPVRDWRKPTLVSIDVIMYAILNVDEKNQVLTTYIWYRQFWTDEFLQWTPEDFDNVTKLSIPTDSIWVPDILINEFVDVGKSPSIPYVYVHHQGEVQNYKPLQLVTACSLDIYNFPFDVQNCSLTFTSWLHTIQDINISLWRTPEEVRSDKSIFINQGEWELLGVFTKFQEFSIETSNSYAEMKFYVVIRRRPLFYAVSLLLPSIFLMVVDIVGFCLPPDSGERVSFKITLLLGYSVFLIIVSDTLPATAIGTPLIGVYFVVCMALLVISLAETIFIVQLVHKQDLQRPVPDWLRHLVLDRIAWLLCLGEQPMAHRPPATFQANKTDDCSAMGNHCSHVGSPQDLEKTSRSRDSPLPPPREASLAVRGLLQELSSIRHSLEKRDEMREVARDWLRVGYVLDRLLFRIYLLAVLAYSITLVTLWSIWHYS
Procedure: 5-HT3 antagonism can be determined by the radioligand receptor binding assay as described herein and in the in vivo Bezold-Jarisch reflex procedure.
GR65630 binds to the 5-HT3 receptor. Brain cortices are obtained from male rats and a membrane fraction prepared by standard techniques. 0.04 mg of membrane prep is incubated with 0.2 nM [^3 H]-GR656630 for 60 minutes at 22° C. […] Membranes are filtered and washed 3 times and the filters are counted to determine [3H]-GR65630 specifically bound.*
Kilpatrick G. J., Jones B. J. and Tyers M. B. Identification and distribution of 5-HT3 receptors in rat brain using radioligand binding. Nature, 330: 746-748, 1987.

5-HT4 receptor, sequence (Q62758 whole entry): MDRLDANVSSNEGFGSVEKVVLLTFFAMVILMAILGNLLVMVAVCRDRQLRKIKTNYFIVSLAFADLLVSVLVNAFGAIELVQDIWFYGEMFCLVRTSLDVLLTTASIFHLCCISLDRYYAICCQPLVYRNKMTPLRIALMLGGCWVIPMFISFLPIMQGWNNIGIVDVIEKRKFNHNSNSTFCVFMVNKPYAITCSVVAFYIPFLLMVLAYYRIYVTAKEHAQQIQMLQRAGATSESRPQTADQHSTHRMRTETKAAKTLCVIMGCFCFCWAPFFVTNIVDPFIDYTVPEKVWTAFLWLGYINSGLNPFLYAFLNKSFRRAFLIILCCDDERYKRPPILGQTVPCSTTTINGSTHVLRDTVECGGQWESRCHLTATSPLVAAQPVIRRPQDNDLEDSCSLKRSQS

SMILES | EC50 [1] [nM] | other results
COc1cc(N)c(Cl)cc1C(=O)NCC12CCCN1CCC2 [Example 1, 4-amino-5-chloro-2-methoxy-N-(tetrahydro-1H-pyrrolizin-7a (5H) -ylmethyl)benzamide] | 422 | 
COc1cc(N)c(Cl)cc1C(=O)NCC12CC3CN(CC3C1)C2 [Example 9, 4-amino-5-chloro-N-[(hexahydro-2,5β-methano-1H-3aR,3aα,6aα-cyclopenta[c]pyrrol-5-yl)methyl]-2-methoxybenzamide] | 216 | 
Cc1nc[nH]c1CCC(=O)c1cn(C)c2ccccc12 [GR65630] |  | % Specific Binding ([2]; radioligand, non-specific binding estimated in the presence of 1 uM ICS 205-930): 70%
COc1ccc2[nH]cc(C3=CCNCC3)c2c1 [RU24969] |  | Ki [2]: 1.85 nM
